Values joined by “and” are separate entries in the source; they are usually repeats but may differ in a detail not shown here. Equal values may be shown once.
system: INS-1E rat beta cells, no cytokines, CellTiter-Glo ATP, 48 h; test: ATP level change in INS-1E without cytokines, dose response, counter-screen for beta-cell apoptosis protection project, INS-1E rat cells, ATP luminescence, cherry pick (AID 463229)

Point of comparison: `O=C(Nc1ccc(Cl)cc1)Nc1csc([N+](=O)[O-])c1`, AC50 7.65 µM. Against it:
- Cn1cc(CNCc2ccc(OC(F)(F)F)cc2)c(-c2ccc3c(c2)OCCO3)n1 — 2.1-fold lower, 3.64 µM
- CCCC(=O)NC(c1ccc(OC)cc1)c1ccc2cccnc2c1O (configuration not stated) — 3.2-fold lower, 2.4 µM
- Oc1ccc(-[n+]2c(-c3ccccc3)cc(-c3ccccc3)cc2-c2ccccc2)cc1 — 1.9-fold lower, 3.96 µM
- CC1CC(C)CN(S(=O)(=O)c2ccc(C(=O)NCCCn3ccnc3)cc2)C1 (configuration not stated) — 13-fold lower, 0.577 µM
- CC1=C(C#N)C(C(F)(F)F)(C(F)(F)F)N=C(c2ccco2)N1 — 1.7-fold higher, 12.8 µM
- CCOC(=O)c1cnc(-n2nc(C)cc2C)nc1Nc1ccc(O)cc1 — 5.4-fold lower, 1.41 µM
- CCCCNC(=O)c1ccc(Cn2c(=S)[nH]c3c([nH]c4ccc(OC)cc43)c2=O)cc1 — within 1.5-fold, 6.92 µM
- Cc1ccc(C(=O)OCn2ncc(Cl)c(Cl)c2=O)cc1 — within 1.5-fold, 7.77 µM
- CCCCCCC[N+](CC)(CC)CCCCc1ccc(Cl)cc1 — 1.6-fold lower, 4.93 µM
- COC(=O)[C@H](CC(C)C)N(Cc1ccccc1)S(=O)(=O)N(Cc1ccc(OC)cc1)[C@@H](CC(C)C)C(=O)OC — 1.5-fold lower, 5.08 µM
- C/C(=N\NC(=O)c1ccc(C)cc1)c1c(C)[nH]n(-c2ccccc2)c1=O — 2-fold higher, 15.3 µM
- CCOc1cc(N2CCOCC2)c(OCC)cc1NC(=O)COc1cccc2cccnc12 — 2.1-fold lower, 3.61 µM
- COc1ccc(/C=C/c2cc(-c3ccc(C)cc3)o[n+]2C)cc1 — 8.4-fold lower, 0.91 µM
- CCC(C)Sc1ccc(-c2nc3ccc(C)cn3c2NCc2ccccc2)cc1OC (configuration not stated) — within 1.5-fold, 6.46 µM
- NS(=O)(=O)c1ccc(N=Nc2ccc(O)c3ncccc23)cc1 — within 1.5-fold, 8.05 µM
- COCCn1c(SCC(=O)/C=C2\N(C)c3ccccc3C2(C)C)nnc1-c1ccncc1 — 1.7-fold higher, 13.1 µM
- O=C(Nc1cc(-c2ccccc2)nn1C1CCCCC1)c1ccc(Cl)cc1 — 2.1-fold lower, 3.67 µM
- CCC(Sc1nc(C)cc(C)n1)C(=O)NC1=NN=C(c2ccc(C)cc2)CS1 (configuration not stated) — 3.6-fold lower, 2.14 µM
- CCCCCCCCCn1ccc(=N)cc1 — 14-fold lower, 0.553 µM
- O=C1C(Cl)=C(NCc2cccnc2)C(=O)c2ccccc21 — 1.9-fold higher, 14.3 µM
- CSc1nc(-c2ccccc2)nc(C(Cl)Cl)n1 — 2-fold lower, 3.88 µM
- CCN(CC)S(=O)(=O)c1ccc(N2CCN(c3ccccc3OC)CC2)c(N)c1 — within 1.5-fold, 5.19 µM
- C=C1C(O)[C@@H]2O[C@]3(CC[C@H](/C=C/C(C)[C@@H]4CC(C)=CC5(O[C@H](C[C@@](C)(O)C(=O)O)CCC5O)O4)O3)CC[C@H]2O[C@@H]1C(O)CC(C)[C@H]1OC2(CCCCO2)CCC1C (some centres not stated) — lower, < 0.195 µM
- COc1cccc(/C=N/Nc2ncc(C(F)(F)F)cc2Cl)c1O — 1.8-fold lower, 4.26 µM
- COC(=O)c1ccccc1NC1=C/C(=N\S(=O)(=O)c2ccc(C(=O)O)cc2)c2ccccc2C1=O — within 1.5-fold, 9.17 µM
- C#CC(=O)N(c1cccc(OC)c1)C(C(=O)NC1CCCC1)c1cccs1 (configuration not stated) — 1.9-fold higher, 14.7 µM
- COc1ccc(Cn2cc3c(-c4ccc(F)cc4)nnc-3c3cc(OC)c(OC)cc32)cc1 — within 1.5-fold, 9.02 µM
- Cc1[nH]nc2nc(SCC(=O)NCCC3=CCCCC3)n(-c3ccc(Br)cc3)c(=N)c12 — within 1.5-fold, 6.36 µM
- CCCCCCCCNc1ncnc2ccccc12 — 20-fold lower, 0.384 µM
- O=[N+]([O-])c1cccnc1N/N=C/c1ccccc1O — within 1.5-fold, 5.45 µM
- Cc1cc(C)n(-c2nc3ccccc3c(=O)n2OCC#N)n1 — 1.6-fold higher, 12.4 µM
- Cn1nc(-c2ccccn2)nc2c(=O)n(C)c(=O)nc1-2 — 2.5-fold lower, 3.1 µM
- CCN1/C(=C/C=C/c2sc3ccccc3[n+]2CC)Sc2ccccc21 — lower, < 0.195 µM
- CC(=O)c1ccc(NC(=S)NCc2cccnc2)cc1 — within 1.5-fold, 5.53 µM
- O=C(NCc1ccccc1)C1=C[C@@H](c2csc3ccccc23)C[C@@H](OCc2ccc(CO)cc2)O1 — within 1.5-fold, 5.16 µM
- N#Cc1ccc(-c2csc(NNC(=O)c3ccc(Br)cc3)n2)cc1 — 2-fold higher, 15.6 µM
- O=[N+]([O-])c1ccccc1-c1cc(-c2ccccc2)cc(-c2ccccc2)[n+]1Cc1ccccc1Cl — 3.4-fold lower, 2.23 µM
- C[n+]1c2n(c3ccccc31)N=C(c1ccc(Cl)cc1)CS2 — 1.8-fold lower, 4.29 µM
- CCCCCCCCCCn1ccc(=N)cc1 — 14-fold lower, 0.543 µM
- N#CC1=C(N)N2C(=C(C#N)C1c1ccc(Br)cc1)Nc1ccccc12 (configuration not stated) — 4.1-fold lower, 1.87 µM
- CCn1c(=NC(=O)c2ccc(S(=O)(=O)N3CCOCC3)cc2)sc2cccc(OC)c21 — within 1.5-fold, 8.4 µM
- CNc1nc(N/N=C/c2cc3c(cc2[N+](=O)[O-])OCO3)nc(Nc2ccccc2)n1 — 1.9-fold higher, 14.2 µM
- Cc1cc(C)n(CCC(=O)N/N=C/c2c(O)ccc3ccccc23)n1 — within 1.5-fold, 9.78 µM
- CCOc1ccc(S(=O)(=O)N(C(=O)c2ccco2)c2cc3sc(=O)oc3c3ccccc23)cc1 — 1.7-fold higher, 12.7 µM
- COc1cccc(/C=N/Nc2cc(N3CCOCC3)ncn2)c1O — 1.9-fold higher, 14.2 µM
- COc1ccc(C2=NNC(=Nc3cc(S(=O)(=O)N(C)C)ccc3C)SC2)c(OC)c1 — 2.5-fold lower, 3.06 µM
- Cc1ccc(C2=CC(c3ccc(N(C)C)cc3)n3nnnc3N2)cc1 (configuration not stated) — within 1.5-fold, 6.72 µM
- Cc1ccc(NC(=O)c2cc(S(=O)(=O)NCCC3=CCCCC3)ccc2F)cc1F — within 1.5-fold, 6.58 µM
- Cc1ccc(C(=O)Nc2cccc3[nH]c(C(F)(F)F)nc23)cc1 — 1.7-fold higher, 13.3 µM
- Cc1ccc(NC(=O)CCC(=O)N/N=C/c2ccc([N+](=O)[O-])o2)cc1C — 2.6-fold higher, 19.8 µM
- COc1ccc(OC)c(NC(=O)CSc2nnc(-c3cccnc3)s2)c1 — within 1.5-fold, 7.37 µM
- Cc1ccc(-c2ccc(/C=C3\C(=O)ON=C3c3ccccc3)o2)c([N+](=O)[O-])c1 — within 1.5-fold, 6.77 µM
- Cc1ccc(-c2c(C#N)c(N)n3c(nc4ccccc43)c2C#N)cc1 — 1.9-fold lower, 4.1 µM
- Cc1cc(C(=O)N/N=C/c2cc(N=Nc3ccccc3)ccc2O)n[nH]1 — 2.4-fold lower, 3.23 µM
- COc1ccc(C(=O)C/C(=C\C(=O)c2ccc(C)cc2)c2ccccc2)cc1 — within 1.5-fold, 7.67 µM
- Cc1ccc(C(=O)c2c(C)oc3c2C(=O)C(=O)c2ccccc2-3)cc1 — 2.6-fold lower, 2.92 µM
- Cc1[nH]n(-c2ccccc2)c(=O)c1/C=N/NC(=O)c1cccc(F)c1 — 1.8-fold lower, 4.23 µM
- Cc1ccc(NC(=O)Cn2c(=O)oc3cc(S(=O)(=O)N4CCC(C)CC4)ccc32)cc1C — 2.1-fold higher, 16 µM
- O=C(NNc1ccnc2cc(Cl)ccc12)C1CCCCC1 — 3-fold lower, 2.53 µM
- Cc1cccc(/C=C/C(=O)c2ccc([N+](=O)[O-])o2)c1 — 1.8-fold lower, 4.26 µM
- COc1cc(C(=O)N/N=C(\C)c2ccccn2)cc(OC)c1OC — within 1.5-fold, 10.6 µM
- Cc1ccc2nc(C)c(CN3CCN(c4ccc([N+](=O)[O-])cc4Cl)CC3)n2c1 — 2.6-fold lower, 2.92 µM
- Cc1ccc(-c2nc(NC(=O)c3nn(C)cc3[N+](=O)[O-])sc2C)cc1 — within 1.5-fold, 5.47 µM
- CC(=O)N(Cc1ccc(F)cc1)C1=C(NCCc2ccccc2)C(=O)c2ccccc2C1=O — 1.9-fold lower, 4.13 µM
- N/C(=N\NC(=O)c1sccc1OCc1ccc(Cl)cc1Cl)c1ccccn1 — 1.5-fold higher, 11.8 µM
- O=C(Nc1ccc(N2CCN(C(=O)c3ccc(Cl)cc3)CC2)cc1)c1cccnc1 — 2.4-fold higher, 18.7 µM
- CCc1c(C)nc2ncnn2c1NCCc1ccc(OC)cc1 — within 1.5-fold, 6.85 µM
- O=S(=O)(c1cc(F)ccc1F)N1CCN(c2ncnc3ccccc23)CC1 — 1.5-fold lower, 5.01 µM
- O=C(Nc1cccc(S(=O)(=O)Nc2ccc(Cl)cc2)c1)c1ccc(Cl)nc1 — 1.7-fold lower, 4.6 µM
- Cc1ccc(NC(=O)c2ccc([N+](=O)[O-])o2)cc1S(=O)(=O)N1CCOCC1 — 1.9-fold higher, 14.3 µM
- CC1CCc2c(sc3nc(C4CC4)nc(N4CCN(C(=O)c5ccco5)CC4)c23)C1 (configuration not stated) — 2.5-fold lower, 3.01 µM
- CCN(C1CCCCC1)S(=O)(=O)c1ccc(S(=O)(=O)NCc2ccncc2)cc1 — within 1.5-fold, 6.3 µM
- COc1ccc2c(c1)N(C)/C(=C/c1cccc[n+]1C)S2 — 5.1-fold lower, 1.49 µM
- COc1ccc(/C=N/Nc2cc(C)nc(-n3nc(C)cc3C)n2)c(OC)c1 — 2.4-fold higher, 18.4 µM
- CC(C)(C)c1ccc(NNC(=O)C2CCC2)cc1 — within 1.5-fold, 9.64 µM
- C=CC[n+]1c(-c2ccc(OCC)cc2)csc1NNC(=O)Nc1ccccc1 — 1.6-fold higher, 12.1 µM
- O=C(Nc1ccc(-c2nc3ccccc3o2)cc1)c1ccc(N2CCOCC2)c([N+](=O)[O-])c1 — within 1.5-fold, 5.65 µM
- CCN(CC)S(=O)(=O)c1ccc(Cl)c(C(=O)Nc2ccc(Cl)cc2[N+](=O)[O-])c1 — within 1.5-fold, 7.97 µM
- Clc1ccc(C[n+]2c(-c3ccccc3)cc(-c3ccccc3)cc2-c2ccccc2)cc1 — 3.8-fold lower, 2.01 µM
- C/C(=N/NC(=O)CN(c1ccccc1)S(=O)(=O)c1ccccc1)c1ccccc1O — within 1.5-fold, 10.2 µM
- O=C(CCSc1nc2ccccc2s1)N/N=C/c1c(O)ccc2ccccc12 — within 1.5-fold, 5.5 µM
- COc1cc(/C=N/N=C(N)N)ccc1OCc1ccc(Cl)cc1 — within 1.5-fold, 7.22 µM
- Cc1cccc2cc(-c3ccccc3)c(-c3ccccc3)c[n+]12 — 1.8-fold lower, 4.21 µM
- Cc1ccc(N=Nc2ccc(O)c3ncccc23)cc1 — within 1.5-fold, 6.58 µM
- O=C(NC1=C(Nc2ccc(Cl)cc2)C(=O)c2ccccc2C1=O)c1ccccc1 — 2.8-fold higher, 21.8 µM
- CC(=O)NC(c1ccccc1)c1cc(Cl)c2cccnc2c1O (configuration not stated) — within 1.5-fold, 6.26 µM
- Cc1cccc(-n2c(C)cc(/C=N/n3cnnc3)c2C)c1 — 1.9-fold higher, 14.5 µM
- CCS(=O)(=O)c1ncc(Cl)c(C(=O)Nc2ccc(S(=O)(=O)N3CCCC(C)C3)cc2)n1 (configuration not stated) — within 1.5-fold, 6.96 µM
- COC(=O)c1nc(-c2ccc3c(n2)C(=O)C(N)=C(OC)C3=O)c(N)c(-c2ccc(OC)c(OC)c2O)c1C — within 1.5-fold, 6.46 µM
- Cn1c(=O)[nH]c(=O)c2c1nc(N1CCN(C(c3ccccc3)c3ccccc3)CC1)n2CCO — within 1.5-fold, 10.8 µM
- Cc1[nH]n(-c2ccccc2)c(=O)c1/C=N/NC(=O)COc1ccccc1[N+](=O)[O-] — within 1.5-fold, 8.45 µM
- COc1cccc(/C=N/Nc2ccnc(=O)[nH]2)c1O — 3-fold higher, 22.7 µM
- O=C(CC(O)(C(F)(F)F)C(F)(F)F)Nc1ccc(Cl)c(Cl)c1 — 2.8-fold lower, 2.73 µM
- CCC1CCCCN1C(=O)c1cc(COc2ccc(-n3cncn3)cc2)on1 (configuration not stated) — 2.2-fold higher, 16.5 µM
- COc1ccc(Cl)c(Cn2c(NCc3ccco3)nc3c2c(=O)n(C)c(=O)n3C)c1 — 1.7-fold higher, 13.1 µM
- COc1ccc(Cn2c(SCc3ccccc3C)nc3cc(OC)c(OC)cc3c2=N)cc1 — within 1.5-fold, 7.93 µM
- O=C(N/N=C\c1ccc([N+](=O)[O-])s1)c1cncc(Br)c1 — within 1.5-fold, 6.53 µM
- Cc1ccc2[nH]c3c(N4CCc5ccccc5C4)ncnc3c2c1 — 3-fold lower, 2.58 µM
- Cc1ccc(C(C)C)c(OCc2nn(CC(=O)c3ccc(OC(F)F)cc3)c3[n+]2CCCCC3)c1 — 1.7-fold lower, 4.43 µM
- C=CCn1nc([N+](=O)[O-])nc1Sc1cccc2cccnc12 — within 1.5-fold, 6.79 µM
- CCCCCCC[n+]1ccc(-c2cc[n+](CCCCCCC)cc2)cc1 — 2.6-fold lower, 3 µM
- Cn1c(NN=O)nc2ccccc21 — 1.9-fold lower, 4.08 µM
- CCOC(=O)c1ccc(-[n+]2c(-c3ccccc3)cc(-c3ccccc3)cc2-c2ccccc2)cc1 — 3.4-fold lower, 2.27 µM
- CCS(=O)(=O)c1ccc(OC)c(N=Nc2ccc(O)c3ncccc23)c1 — within 1.5-fold, 9.84 µM
- CC[C@]1(c2ccccc2OC)ON(c2ccccc2C(F)(F)F)C1=O — 1.7-fold lower, 4.55 µM

For `C[C@H]1CCC/C=C/[C@@H]2C[C@H](O)C[C@H]2[C@H](O)/C=C/C(=O)O1`, the AC50 was 0.948 µM and 1 µM.
